Results as given in patent publication EP3315495A1, “N,N' -[…], N,N' -DIAR[…] N,N' -DIARY[…] FOR USE IN TREATMENT AND PREVENTION OF INFLAMMATORY DISEASE” (Universität Innsbruck, priority 2016, dated 2018).
Read-outs that look alike come from different tables or passages of the source.

Key:
[1] = tested on: 5-LOX product formation in PMNL; assay: 5-LOX product formation in PMNL stimulated with A23187 (cell-based); design: species or system human; conditions: for IC50: read-out: Effect on 5-LOX product formation in PMNL, IC50; for inhibition at 10 µM: read-out: Effect on 5-LOX product formation in PMNL, % inhibition
Protocol: Briefly, first a cell-based assay allows to determine the inhibition of the 5-LOX product biosynthesis. The cell suspension contained human neutrophils (PMNL) or monocytes, wherein the cells were isolated from buffy coats obtained from healthy donors pooled by gender. An aliquot cell suspension was incubated with the candidate compound for 15 min at 37 °C. The cells are treated with calcium ionophore A23187 to stimulate 5-LOX product formation for further 10 min (37 °C), optionally in presence of various concentrations of AA. The reaction was stopped with 1 mL methanol on ice.
(§1) In both assays, product quantification was conducted with RP-HPLC and UV detection after solid phase extraction and addition of 200 ng prostaglandin B1 as internal standard.

[2] = target: T1, isolated 5-LOX (Homo sapiens, UniProt P09917); assay: FLAP-independent cell-free enzymatic assay with isolated recombinant 5-LOX; assay type: biochemical; conditions: for inhibition at 10 µM: read-out: Effect on isolated 5-LOX, % inhibition
T1 construct: made in house; host or cells: E. coli
T1 sequence (P09917 1-674): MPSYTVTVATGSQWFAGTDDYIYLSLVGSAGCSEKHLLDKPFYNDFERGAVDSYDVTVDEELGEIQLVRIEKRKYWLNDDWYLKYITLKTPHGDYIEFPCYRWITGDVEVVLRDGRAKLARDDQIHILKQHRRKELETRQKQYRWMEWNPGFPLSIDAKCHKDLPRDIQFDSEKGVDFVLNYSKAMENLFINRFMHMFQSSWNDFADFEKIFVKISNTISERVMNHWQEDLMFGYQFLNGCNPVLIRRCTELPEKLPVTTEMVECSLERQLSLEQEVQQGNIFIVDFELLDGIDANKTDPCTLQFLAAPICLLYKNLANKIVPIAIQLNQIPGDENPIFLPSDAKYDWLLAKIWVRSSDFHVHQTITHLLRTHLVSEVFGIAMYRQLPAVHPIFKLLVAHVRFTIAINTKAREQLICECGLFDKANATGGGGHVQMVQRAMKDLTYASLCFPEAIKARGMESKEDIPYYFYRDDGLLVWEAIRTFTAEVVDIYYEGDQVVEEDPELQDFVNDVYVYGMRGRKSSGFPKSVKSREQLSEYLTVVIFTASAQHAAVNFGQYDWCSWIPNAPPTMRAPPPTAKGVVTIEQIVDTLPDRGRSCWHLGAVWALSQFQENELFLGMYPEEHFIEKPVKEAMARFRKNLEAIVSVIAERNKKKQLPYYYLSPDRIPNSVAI
Protocol: as §1

[3] = target: T2, sEH (Homo sapiens, UniProt P34913); assay: biochemical; conditions: read-out: Effect on sEH activity, % inhibition
T2 sequence (P34913 1-555): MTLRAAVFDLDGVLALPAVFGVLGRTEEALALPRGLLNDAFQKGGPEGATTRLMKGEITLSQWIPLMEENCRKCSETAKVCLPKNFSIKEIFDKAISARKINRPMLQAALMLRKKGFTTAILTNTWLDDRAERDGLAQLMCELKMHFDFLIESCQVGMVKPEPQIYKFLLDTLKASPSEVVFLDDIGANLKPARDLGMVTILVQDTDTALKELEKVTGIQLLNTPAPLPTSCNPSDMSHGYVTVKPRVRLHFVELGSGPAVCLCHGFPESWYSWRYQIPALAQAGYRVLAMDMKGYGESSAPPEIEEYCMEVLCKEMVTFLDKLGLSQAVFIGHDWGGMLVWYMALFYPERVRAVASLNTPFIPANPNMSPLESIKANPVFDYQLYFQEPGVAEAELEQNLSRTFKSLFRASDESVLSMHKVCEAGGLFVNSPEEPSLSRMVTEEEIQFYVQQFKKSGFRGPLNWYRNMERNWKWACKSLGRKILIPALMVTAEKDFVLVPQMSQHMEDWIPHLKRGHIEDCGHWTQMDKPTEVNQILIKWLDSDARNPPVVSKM
Protocol: (§2) In brief, sEH was expressed in transfected Sf9-cells. Isolation of sEH from the cell pellet was conducted with a benzylthiosepharose matrix. […] The reaction was stopped with ZnSO4 (0.2 M) after 60 min incubation. […] Inhibitors were tested for self fluorescence. Positive controls were AUDA (12-(3-adamantan-1-yl-ureido)dodecanacid) and DCU (N,N'-dicyclohexylurea) at 10 µM.

[4] = target: T3, FLAP (Homo sapiens, UniProt P20292); conditions: active = inhibition of product formation in cells without 5-LOX activity in the cell-free assay
T3 sequence (P20292 1-161): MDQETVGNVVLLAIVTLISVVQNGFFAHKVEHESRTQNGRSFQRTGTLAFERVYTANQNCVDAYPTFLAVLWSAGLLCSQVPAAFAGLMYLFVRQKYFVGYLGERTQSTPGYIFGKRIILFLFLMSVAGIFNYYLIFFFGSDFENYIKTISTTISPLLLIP
Protocol: The enzyme was preincubated for 15 min with the potential inhibitor on ice and subsequently exposed to 2 mM CaCl2 and 20 µM AA for 10 min at 37°C.
Effect on 5-LOX product formation and sEH activity is determined as described above. In case of observed effect on 5-LOX product formation in the cellular assay, 5-LOX activity was investigated with isolated 5-LOX.

[5] = target: T2, sEH; conditions: at 0.1 µM
Protocol: as §2

| SMILES | IC50 ([1]; Homo sapiens, PMNL) | inhibition at 10 µM ([2]; at 10 µM) | inhibition at 10 µM [3] | inhibition at 10 µM ([1]; Homo sapiens, PMNL, at 10 µM) | inhibition at 0.1 µM [3] | Effect on FLAP activity [4] | other results |
| --- | --- | --- | --- | --- | --- | --- | --- |
| S=C(Nc1ccc(OCc2nc3ccccc3[nH]2)cc1)Nc1ccc(Cl)c(Cl)c1 [EZ21, N-[4-(1-H-Benzimidazol-2-ylmethoxy)-phenyl]-N'-(3,4-dichlorophenyl)-thiourea] | 690 nM | 87% | ~54% |  |  |  |  |
| CC(C)(C)OC(=O)n1c(COc2ccc(NC(=O)Nc3ccc(Cl)c(Cl)c3)cc2)nc2ccccc21 [EZ18, N-[4-(1-tert.-Butoxycarbonyl-1H-benzimidazol-2-ylmethoxy)-phenyl]-N'-(3,4-dichlorophenyl)-urea] |  | ~22% |  | ~40% | ~67% |  |  |
| CC(C)(C)OC(=O)n1c(COc2ccc(NC(=S)Nc3ccc(Cl)c(Cl)c3)cc2)nc2ccccc21 [EZ20, N-[4-(1-tert.-Butoxycarbonyl-1H-benzimidazol-2-ylmethoxy)-phenyl]-N'-(3,4-dichlorophenyl)-thiourea] |  |  |  |  | ~39% | inactive | inhibition at 10 µM ([1]; Homo sapiens, PMNL): -65%; inhibition at 10 µM [2]: ~39% |
| Cc1cc(OCc2nc3ccccc3n2C(=O)OC(C)(C)C)ccc1NC(=S)Nc1ccc(Cl)c(Cl)c1 [EZ15, N-[4-(1-tert.-Butoxycarbonyl-1H-benzimidazol-2-ylmethoxy)-2-methylphenyl]-N'-(3,4-dichlorophenyl)-thiourea] |  | ~33% | ~66% | ~39% |  | inactive |  |
| Cc1cc(OCc2nc3ccccc3[nH]2)ccc1NC(=S)Nc1ccc(Cl)c(Cl)c1 [EZ17, N-[4-(1H-Benzimidazol-2ylmethoxy)-2-methylphenyl]-N'-(3,4-dichlorophenyl)-thiourea] | 820 nM | 65% | ~64% |  |  | active |  |
| O=C(Nc1ccc(OCc2nc3ccccc3[nH]2)cc1)Nc1ccc(Cl)c(Cl)c1 [EZ19, N-[4-(1-H-Benzimidazol-2-ylmethoxy)-phenyl]-N'-(3,4-dichlorophenyl)-urea] |  |  |  |  |  | active | IC50 [1]: 550 nM; Effect on isolated 5-LOX, % inhibition ([2]; at 10 µM): ∼33 % inhibitio n at 10 µM; Effect on sEH activity, % inhibition [5]: ∼52 % inhibition at 0.1 µM |
